Experimental data reported in PMC6155188 (2017).

Experiments:
[1] = system: GP1 (DNA, aptamer) GGAGGCTCTCGGGACGACGGGAGCATCATTCTGAGTGTTATGTGGATTGATACGTCTGGTCGTCCCGATGCTGCAATCGTAA; test: structure-switching fluorescence titration; details: 500 mM NaCl, 10 mM MgCl2, 5 mM KCl; 20 mM HEPES pH 7.4, room temperature; dabcyl-cDNA displaced; ligand stocks up to 200 mM
[2] = system: GP2 (DNA, aptamer) GGAGGCTCTCGGGACGACGGTGTGGCCCGTGGTGTCACTAATGAAGGGATTCATTTCAGTCGTCCCGATGCTGCAATCGTAA; test: structure-switching fluorescence titration; details: 500 mM NaCl, 10 mM MgCl2, 5 mM KCl; 20 mM HEPES pH 7.4, room temperature; dabcyl-cDNA displaced; ligand stocks up to 200 mM
[3] = system: GP1 (DNA, aptamer) GGAGGCTCTCGGGACGACGGGAGCATCATTCTGAGTGTTATGTGGATTGATACGTCTGGTCGTCCCGATGCTGCAATCGTAA; test: structure-switching fluorescence titration, Kd = Kd,eff1/Kd,eff2; details: 500 mM NaCl, 10 mM MgCl2, 5 mM KCl; 20 mM HEPES pH 7.4, ~23 °C; dabcyl-cDNA displaced (sequence not in text); 50 nM each strand
[4] = system: GP2 (DNA, aptamer) GGAGGCTCTCGGGACGACGGTGTGGCCCGTGGTGTCACTAATGAAGGGATTCATTTCAGTCGTCCCGATGCTGCAATCGTAA; test: as above; details: 500 mM NaCl, 10 mM MgCl2, 5 mM KCl; 20 mM HEPES pH 7.4, ~23 °C; dabcyl-cDNA displaced (sequence not in text); 50 nM each strand

| binding [1] | binding [2] | Kd [3] | Kd [4] | Structure (SMILES) |
| --- | --- | --- | --- | --- |
| no | no | – | – | COC(=O)C1=CO[C@@H](O)[C@@H]2C(CO)=CC[C@H]12 |
| – | – | ~ 6.1 μM | ~ 2.0 μM | COC(=O)C1=CO[C@@H](O[C@@H]2O[C@H](CO)[C@@H](O)[C@H](O)[C@H]2O)[C@@H]2C(CO)=CC[C@H]12 |
| no | no | – | – | OC[C@H]1OC(O)[C@H](O)[C@@H](O)[C@@H]1O (stereo partly drawn) |
